Experiment: Solubility / elution of paclitaxel solid forms in porcine serum
Format: physicochemical
Conditions: 37° C.
Source text: For example, amorphous and dihydrate taxane solid forms may be readily identified and differentiated by visual appearance and elution rates. […] In addition, the presence of different solid forms of the taxane agent in a medical device coating can be identified and quantified by contacting the coating with an elution medium that selectively dissolves one solid form more readily than a second solid form. In solution with an elution medium, such as porcine serum or blood, the presence of the taxane agent can be identified, for example by using ultraviolet (UV) spectroscopy or high pressure liquid chromatography (HPLC). […] Non-solvated solid forms include amorphous or anhydrous solid forms.
The amount of taxane agent released from coating into the elution medium, and the rate of release of the taxane agent from a coating, can be measured by any suitable method that allows for measurement of the release of the taxane agent with a desired level of accuracy and precision. The taxane agent in the coating can be determined by dissolving the coating in a suitable elution medium and subsequently detecting the amount of taxane agent in the elution medium. The taxane agent dissolved in the elution medium can be detected using any suitable technique. […] This correlation involves the linear relationship between optical density (absorbance) and concentration of an absorbing species. […]

solubility after 24 hours in porcine serum: less than 40 wt %
Structure (SMILES): CC(=O)O[C@H]1C(=O)[C@@]2(C)[C@H]([C@H](OC(=O)c3ccccc3)[C@]3(O)C[C@H](OC(=O)[C@H](O)[C@@H](NC(=O)c4ccccc4)c4ccccc4)C(C)=C1C3(C)C)[C@]1(OC(C)=O)CO[C@@H]1C[C@@H]2O [dihydrate paclitaxel, paclitaxel]
